Reference: patent US20220388969A1, “SUBSTITUTED 3,4-DIHYDROQ[…] THE TREATMENT AND PROPHYLAXIS OF HEPATITIS B VIRUS INFECTION” (priority 2019, published 2022)
pIC50: −log10 of the molar value.

test system: HBeAg level in HepDES19 cells (surrogate marker for HBV cccDNA); test: Engineered HepDES19 primary screen assay (HBeAg as surrogate marker for cccDNA); type: cell-based; conditions: Hepatitis B virus, 120 h; HepDES19 cells, 5 days incubation with compound, HBeAg ELISA; read-out: IC50 (HBeAg level, HepDES19 primary screen assay)
Source text: The assay was employed to screen for novel cccDNA inhibitors. HepDES19 is a cccDNA-producing cell line. In this cell line, HBeAg in the cell culture supernatant as surrogate marker, as HBeAg production depends on cccDNA level and activity. HepDES19 is an engineered cell line which contains a 1.1 unit length HBV genome, and pgRNA transcription from the transgene is controlled by Tetracycline (Tet). In the absence of Tet, pgRNA transcription will be induced, but HBV e antigen (HBeAg) could not be produced from this pgRNA due to very short leader sequence before the HBeAg start codon and the start codon is disrupted. Only after cccDNA is formed, the missing leader sequence and start codon mutation would be restored from the 3′-terminal redundancy of pgRNA, and then HBeAg could be synthesized. Therefore, HBeAg could be used as a surrogate marker for cccDNA (Zhou, T. et al., Antiviral Res.(2006), 72(2), 116-124; Guo, H. et al., J. Virol. (2007), 81(22), 12472-12484).
HepDES19 cells were seeded at 2×10^6 cells per T150 flask and cultured with the culture medium (Dulbecco's Modified Eagle Medium: Nutrient Mixture F-12 [DMEM-F12, Gibco Cat. 11320-82], 10% Fetal Bovine Serum [FBS, Clontech Cat. 631101], 0.1 mM Non-Essential Amino Acids Solution [NEAA, Gibco Cat. 11140-050], 50 μg/mL Penicillin-Streptomycin [PS, Invitrogen Cat. 15140-163], 500 μg/mL Geneticin [G418, Invitrogen Cat. 10131-027]) containing 3 μg/mL Tet (Sigma, Cat. 87128) for 5 days. Cells were then seeded at 4×10^6 cells per T150 in the same culture medium as described above in the absence of Tet for 8 days. Cells were then harvested and frozen at density of 2×10^6 cells per mL. For compound testing, the frozen cells were thawed and seeded into 96-well plates at a density of 6 ×10^4 cells per well. At 24hours after seeding, half log serial dilutions of compounds made with Dimethyl sulfoxide (DMSO, Sigma, Cat. D2650) were further diluted with the same culture medium as described above before they were added to the cells to reach desired final compound concentrations and 1% DMSO concentration. Plates were then incubated at 37° C. for another 5 days before measurement of HBeAg level and cell viability. Intracellular HBeAg level were measured with enzyme-linked immunosorbent assay (ELISA) kit (Shanghai Kehua Diagnostic Medical Products Co., Ltd). Cell viability was assessed using Cell Counting Kit-8 (DonJindo, Cat. CK04-20). IC50 values were derived from the dose-response curve using 4 parameter logistic curve fit method.
The compounds of the present invention were tested for their capacity to inhibit extracellular HBeAg level as described herein.

SMILES | pIC50
CC1NC(c2ccc(Br)cc2OCCOC2CC(C(=O)O)C2)=Nc2c(Cl)cccc21 (stereo not drawn) [Example 37, 3-[2-[5-bromo-2-(8-chloro-4-methyl-3,4-dihydroquinazolin-2-yl)phenoxy]ethoxy]cyclobutanecarboxylic Acid] | 5.71
CC1NC(c2ccc(OCCOCC(=O)O)cc2)=Nc2cc(C(F)(F)F)ccc21 (stereo not drawn) [Example 20, 2-[2-[4-[4-methyl-7-(trifluoromethyl)-3,4-dihydroquinazolin-2-yl]phenoxy]ethoxy]acetic Acid] | 5.70
CC1NC(c2ccc(OCCOCC(=O)O)cc2)=Nc2c(Cl)cccc21 (stereo not drawn) [Example 23, 2-[2-[4-(8-chloro-4-methyl-3,4-dihydroquinazolin-2-yl)phenoxy]ethoxy]acetic Acid] | 5.75
Clc1cccc2c1N=C(c1ccc(Br)cc1)NC2C1CC1 (stereo not drawn) [Example 35, 2-(4-bromophenyl)-8-chloro-4-cyclopropyl-3,4-dihydroquinazoline] | 6.39
CC1NC(n2cnc(Br)c2)=Nc2cc(C(F)(F)F)ccc21 (stereo not drawn) [Example 30, 2-(4-bromoimidazol-1-yl)-4-methyl-7-(trifluoromethyl)-3,4-dihydroquinazoline] | 6.11
NC(=O)C1NC(c2cccc(Br)c2)=Nc2cc(C(F)(F)F)ccc21 (stereo not drawn) [Example 15, 2-(3-bromophenyl)-7-(trifluoromethyl)-3,4-dihydroquinazoline-4-carboxamide] | 6.59
O=C(C1NC(c2ccc(Br)cc2)=Nc2cc(C(F)(F)F)ccc21)N1CCOCC1 (stereo not drawn) [Example 17, [2-(4-bromophenyl)-7-(trifluoromethyl)-3,4-dihydroquinazolin-4-yl]-morpholino-methanone] | 5.78
O=C(O)C1NC(c2ccc(Br)cc2)=Nc2c(Cl)cccc21 (stereo not drawn) [Example 1, 2-(4-bromophenyl)-8-chloro-3,4-dihydroquinazoline-4-carboxylic Acid] | 5.25
O=C(O)C1NC(c2ccc(N3CCCC3)nc2)=Nc2c(Cl)cccc21 (stereo not drawn) [Example 10, 8-chloro-2-(6-pyrrolidin-1-yl-3-pyridyl)-3,4-dihydroquinazoline-4-carboxylic Acid] | 7.30
COC(=O)c1ccc(-c2csc(C3=Nc4c(Cl)cccc4C(C)N3)n2)cc1 (stereo not drawn) [Example 32, methyl 4-[2-(8-chloro-4-methyl-3,4-dihydroquinazolin-2-yl)thiazol-4-yl]benzoate] | 6.07
Cc1cc(C2=Nc3c(Cl)cccc3C(C(=O)O)N2)ccc1Br (stereo not drawn) [Example 5, 2-(4-bromo-3-methyl-phenyl)-8-chloro-3,4-dihydroquinazoline-4-carboxylic Acid] | 6.25
OCC1NC(c2ccc(Br)cc2)=Nc2c(Cl)cccc21 (stereo not drawn) [Example 38, [2-(4-bromophenyl)-8-chloro-3,4-dihydroquinazolin-4-yl]methanol] | 5.27
CC1NC(c2cccc(Br)c2)=Nc2cc(C(F)(F)F)ccc21 (stereo not drawn) [Example 33, 2-(3-bromophenyl)-4-methyl-7-(trifluoromethyl)-3,4-dihydroquinazoline] | 6.07
COc1ccc(C2=Nc3c(Cl)cccc3C(C(N)=O)N2)cc1 (stereo not drawn) [Example 14, 8-chloro-2-(4-methoxyphenyl)-3,4-dihydroquinazoline-4-carboxamide] | 5.61
CC1c2ccc(C(F)(F)F)cc2N=C(c2cccc(Br)c2)N1CCO (stereo not drawn) [Example 25, 2-[2-(3-bromophenyl)-4-methyl-7-(trifluoromethyl)-4H-quinazolin-3-yl]ethanol] | 5.02
CC1(C(=O)O)NC(c2ccc(Br)cc2)=Nc2c(Cl)cccc21 (stereo not drawn) [Example 11, 2-(4-bromophenyl)-8-chloro-4-methyl-3H-quinazoline-4-carboxylic Acid] | 6.89
CC1c2cccc(Cl)c2N=C(c2ccc(OCCOCC(=O)O)cc2)N1C (stereo not drawn) [Example 26, 2-[2-[4-(8-chloro-3,4-dimethyl-4H-quinazolin-2-yl)phenoxy]ethoxy]acetic acid] | 5.26
CC1(C)NC(c2ccc(Br)cc2)=Nc2c(Cl)cccc21 [Example 34, 2-(4-bromophenyl)-8-chloro-4,4-dimethyl-3H-quinazoline hydrofluoride] | 5.24
CC1NC(c2ccc(OCCO[C@H]3C[C@@H](C(=O)O)C3)cc2)=Nc2c(Cl)cccc21 (stereo partly drawn) [Example 21, cis-3-[2-[4-(8-chloro-4-methyl-3,4-dihydroquinazolin-2-yl)phenoxy]ethoxy]cyclobutanecarboxylic Acid] | 5.99
CC1c2ccc(C(F)(F)F)cc2N=C(c2cccc(Br)c2)N1C (stereo not drawn) [Example 24, 2-(3-bromophenyl)-3,4-dimethyl-7-(trifluoromethyl)-4H-quinazoline] | 5.68
CCOc1ccc(C2=Nc3c(Cl)cccc3C(C(=O)O)N2)cn1 (stereo not drawn) [Example 9, 8-chloro-2-(6-ethoxy-3-pyridyl)-3,4-dihydroquinazoline-4-carboxylic Acid] | 6.35
CC1NC(c2nc(Br)cs2)=Nc2c(Cl)cccc21 (stereo not drawn) [Example 31, 4-bromo-2-(8-chloro-4-methyl-3,4-dihydroquinazolin-2-yl)thiazole] | 5.69
CC1NC(c2ccc(OCCO)cc2)=Nc2c(Cl)cccc21 (stereo not drawn) [Example 28, 2-[4-(8-chloro-4-methyl-3,4-dihydroquinazolin-2-yl)phenoxy]ethanol] | 5.32
OCCOc1ccc(C2=Nc3c(Cl)cccc3CN2)cc1 [Example 27, 2-[4-(8-chloro-3,4-dihydroquinazolin-2-yl)phenoxy]ethanol] | 4.94
COc1ccc2c(c1)CCN(C1=Nc3c(Cl)cccc3C(C)N1)C2=O (stereo not drawn) [Example 29, 2-(8-chloro-4-methyl-3,4-dihydroquinazolin-2-yl)-6-methoxy-3,4-dihydroisoquinolin-1-one] | 7.57
COc1ccc(C2=Nc3c(Cl)cccc3C(C(=O)O)N2)cn1 (stereo not drawn) [Example 8, 8-chloro-2-(6-methoxy-3-pyridyl)-3,4-dihydroquinazoline-4-carboxylic Acid] | 5.04

same assay, conditions: Hepatitis B virus, HepDES19, 120 h, read-out: IC50 (HBeAg level, HepDES19 primary screen assay)

SMILES | pIC50
O=C(NCCCl)C1NC(c2ccc(Br)cc2)=Nc2c(Cl)cccc21 (stereo not drawn) [Example 18, 2-(4-bromophenyl)-8-chloro-N-(2-chloroethyl)-3,4-dihydroquinazoline-4-carboxamide] | 5.59

test system: HBsAg in HBV-infected primary human hepatocytes; test: Cryopreserved primary human hepatocytes (PHH) HBV infection assay, extracellular HBsAg; type: cell-based; conditions: Hepatitis B virus, Hepatocyte, 216 h, read-out: HBsAg IC50
Description: This assay is used to confirm the anti-HBV effect of the compounds in HBV PHH infection assay. Cryopreserved PHH (BioreclamationlVT, Lot YJM) was thawed at 37° C. and gently transferred into pre-warmed InVitroGRO HT medium (BioreclamationIVT, Cat. S03317). The mixture was centrifuged at 70 relative centrifugal force (RCF) for 3 minutes at RT, and the supernatant was discarded. Pre-warmed InVitroGRO CP medium (BioreclamationlVT, Cat# S03316) was added to the cell pellet to gently re-suspend cells. The cells were seeded at the density of 5.8×10^4 cells per well to collagen I coated 96-well plate (Gibco, Cat. A1142803) with the InVitroGRO CP medium. All plates were incubated at 37° C. with 5% CO2 and 85% humidity.
At 20 hours after plating, the medium was changed to PHH culture medium (Dulbecco's Modified Eagle Medium (DMEM)/F12 (1:1) (Gibco, Cat. 11320-033), 10% fetal bovine serum (Gibco Cat. 10099141), 100 U/mL penicillin, 100 μg/mL streptomycin (Gibco, Cat. 151401-122), 5 ng/mL human epidermal growth factor (Invitrogen Cat. PHG0311L), 20 ng/mL dexamethasone (Sigma, Cat. D4902) and 250 ng/mL human recombinant insulin (Gibco, Cat. 12585-014)). And the cells were incubated at 37° C. with 5% CO2 and 85% humidity for 4 hours. The medium was then changed to pre-warmed PHH culture medium containing 4% polyethylene glycol (PEG) MW8000 (Sigma, Cat. P1458-50ML) and 1% DMSO (Sigma, Cat. D2650). 5.8×10^6 genomic equivalents of HBV were added into the medium.
At 24 hours post-infection, the cells were gently washed with PBS and refreshed with PHH culture medium supplemented with 1% DMSO, and 0.25 mg/mL Matrix gel (Corning, Cat. 356237) at 200 μL per well. All plates were immediately placed in at 37° C. CO2 incubator.
24 hours later, serial dilutions of compounds made with DMSO were further diluted with the same culture medium (PHH culture medium supplemented with 1% DMSO and 0.25 mg/mL Matrix gel as described above) before they were added to the cells to reach desired final compound concentrations and 1% DMSO concentration. The medium containing the compounds were refreshed every three days.
At 9 days post-compound treatment, extracellular HBsAg level were measured with Chemiluminescence Immuno Assay (CLIA) kit (Autobio, HBsAg Quantitative CLIA).
HBsAg IC50 values were derived from the dose-response curve using 4 parameter logistic curve fit method. The compounds of formula (I) have HBsAg IC50<20 μM, particularly <1 μM.

SMILES | pIC50
O=C(O)C1NC(c2ccc(Br)cc2)=Nc2c(Cl)cccc21 (stereo not drawn) [Example 1, 2-(4-bromophenyl)-8-chloro-3,4-dihydroquinazoline-4-carboxylic Acid] | 5.51
COC(=O)c1ccc(-c2csc(C3=Nc4c(Cl)cccc4C(C)N3)n2)cc1 (stereo not drawn) [Example 32, methyl 4-[2-(8-chloro-4-methyl-3,4-dihydroquinazolin-2-yl)thiazol-4-yl]benzoate] | 7.62
Cc1cc(C2=Nc3c(Cl)cccc3C(C(=O)O)N2)ccc1Br (stereo not drawn) [Example 5, 2-(4-bromo-3-methyl-phenyl)-8-chloro-3,4-dihydroquinazoline-4-carboxylic Acid] | 5.36
